Experimental data as given in paper PMC10480161, “Identification of potent and selective N-myristoyltransferase inhibitors of Plasmodium vivax liver stage hypnozoites and schizonts” (Nature Communications, 2023).
“And” between values parts separate entries of the source, which are not always exact repeats. Equal entries are not always repeated.

What was measured:
[1] = test system: primary human hepatocytes; assay: Nuclear counts (DAPI) in P. vivax-infected primary hepatocytes as measure of toxicity; format: cell-based; conditions: two technical replicates
Method: Accordingly, we applied dose–response curves of all the tested NMTs on parasite isolates 2 and 3 over concentrations up to 20 µM (Fig. 5c, d, Source Data file). […] Nuclei were counted in each well using DAPI staining as a measure of toxicity (Supplementary Fig. 86, Supplementary Source data). We used the phosphatidylinositol 4-kinase inhibitor (PI4Ki), MMV390048, as a positive control for eliminating schizonts[37],[38].
Plasmodium vivax liver stage assays were performed as described previously. Cryopreserved primary human hepatocytes (Cat No. F00995-P) and hepatocyte culture medium (HCM) (InVitroGroTM CP Medium) were obtained from Bioreclamation IVT, Inc., (Baltimore, MD, USA). Briefly, we seeded 384-well plates with primary hepatocytes from a single donor lot at a density of 25,000 cells per well. We then infected the hepatocytes with 14,000 freshly hand-dissected sporozoites per well. Cells were exposed to the compounds at indicated concentrations from day 5 post-infection. We used Pi4K inhibitor MMV390048, at 20 µM, as a positive control to eliminate P. vivax liver schizonts. We then proceeded to feed cultures every day, replacing the compounds until day 8 post-infection. Cells were fixed with 4% PFA, permeabilized with 1% Triton X-100, blocked with 2% BSA, and stained with DAPI and PvUIS4 antibodies to detect schizonts and hypnozoites forms by confocal microscopy. […] DAPI was diluted 1:2000. The images were processed, analyzed and outlier cells were removed using IMARIS (Bitplane Inc.) image analysis software.
Supplementary Fig. 86. […] Nuclear […]
counts, normalized to DMSO controls, for NMT inhibitors across a dose response. Counts were ob-tained using DAPI staining from the P. vivax-infected wells quantified in Fig. 5d. Error bars represent the standard deviation of two technical replicates.
(1 picture or pasted object on this page, not shown here)

HepG2 cells = assay: HepG2 cytotoxicity assay (Live/Dead staining); conditions: replicates
Method: (§1) Therefore, we assessed cytotoxicity in the human hepatoma HepG2 cell line. We required a PvNMT to HsNMT SI > 20 for further screening. HepG2 cells were exposed to the compounds at concentrations ranging from 1 to 20 µM for […], and toxicity was assessed via live-dead staining.
(§2) The viability of the HepG2 cell line following exposure to the compounds was determined by a Live/Dead cell assay kit (Invitrogen). Briefly, cells were added to a 96-well plate at a concentration of 5000 cells per well, excluding the exterior wells. Cells were exposed to the compounds at different concentrations ranging from 1 to 20 µM. Cells were washed every 24 h and supplemented with fresh doses of compounds. At 72 h post-treatment, 1 µM calcein-AM and 1 µM ethidium homodimer were added to the wells and incubated for 10 min at 37 °C. After washing with PBS, the cells were visualized with fluorescent microscopy (Keyence BZ-X700).

[2] = HepG2 cytotoxicity assay (Live/Dead staining); conditions: human, HepG2 cells
Method: as §1, §2

## Cc1n[nH]c(C)c1CCOc1cc(F)ccc1-c1cccc(OCCN(C)C)c1 [Compound 26i]
[1]; 1 uM
  Nucleus counts per well: 15030 per well and 14960 per well
[1]; 2.5uM
  Nucleus counts per well: 13600 per well and 14280 per well
[1]; 5 uM
  Nucleus counts per well: 12980 per well and 13510 per well
[1]; 10uM
  Nucleus counts per well: 14570 per well and 13510 per well
[1]; 20uM, P. vivax-infected wells
  Nucleus counts per well: 12860 per well and 13500 per well
HepG2 cells; 1 μM
  Percentage of live HepG2 cells compared with diluent controls: 96.6401% and 97.1078%
HepG2 cells; 2.5 μM
  Percentage of live HepG2 cells compared with diluent controls: 90.0917%
HepG2 cells; 5 μM
  Percentage of live HepG2 cells compared with diluent controls: 95.2109% and 86.8435%
HepG2 cells; 10 μM
  Percentage of live HepG2 cells compared with diluent controls: 86.5317% and 90.6634%
HepG2 cells; 20 μM
  Percentage of live HepG2 cells compared with diluent controls: 79.0479% and 88.1213%
[2]
  IC50 at 48 h: > 20 µM

## c1cncc(CCOc2ccc3ccccc3c2-c2ccnc(N3CCNCC3)c2)c1 [Compound 30c]
[1]; 1 uM
  Nucleus counts per well: 12390 per well and 13530 per well
[1]; 2.5uM
  Nucleus counts per well: 13960 per well and 13570 per well
[1]; 5 uM
  Nucleus counts per well: 14060 per well and 13800 per well
[1]; 10uM
  Nucleus counts per well: 13530 per well and 13880 per well
[1]; 20uM, P. vivax-infected wells
  Nucleus counts per well: 14090 per well and 14800 per well
HepG2 cells; 1 μM
  Percentage of live HepG2 cells compared with diluent controls: 102.591% and 103.526%
HepG2 cells; 2.5 μM
  Percentage of live HepG2 cells compared with diluent controls: 103.812% and 93.9636%
HepG2 cells; 5 μM
  Percentage of live HepG2 cells compared with diluent controls: 93.7037% and 93.0801%
HepG2 cells; 10 μM
  Percentage of live HepG2 cells compared with diluent controls: 92.5344% and 91.9887%
HepG2 cells; 20 μM
  Percentage of live HepG2 cells compared with diluent controls: 79.2818% and 86.3846%
[2]
  IC50 at 48 h: > 20 µM
